Experimental data published in article PMC12518639, “Apomorphine is a novel necroptosis inhibitor targeting mixed lineage kinase domain-like protein oligomerization” (Cell Death Discovery, 2025).

Key:
[1] = test system: DSS-induced colitis in C57BL/6 mice; assay: DSS-induced colitis model; type: in vivo, mouse
Protocol: For DSS-induced colitis, male C57BL/6 mice aged 6–8 weeks (Central Lab Animal Inc., S. Korea) were administered 2.5% DSS (36–50 kDa, 9011-18-1, MP Biomedicals, Solon, OH, USA) in their drinking water for 8 days. The 2.5% DSS-supplemented drinking water was prepared by dissolving 12.5 g of DSS powder in 500 mL of distilled water and was freshly prepared and replaced daily throughout the 8 days. Body weight and DAI score were recorded daily. The DAI score was calculated based on weight loss (no weight loss, 1–5%, 5–10%, 10–15%, and >15% weight loss, respectively, representing DAI scores of 0, 1, 2, 3, and 4), stool consistency/diarrhea (normal = 0, loose stools = 2, and watery diarrhea = 4), and bleeding (no bleeding = 0, slight bleeding = 2, gross bleeding = 4). At the end of the experiment, the mice were sacrificed, and tissue samples were collected.
Each mouse colon was removed, measured in length, cut open, fixed in Bouin’s fixative (50% ethanol/5% acetic acid in distilled water), and embedded in paraffin. Tissue sections were stained with H&E (Sigma-Aldrich). Histological evaluation of the colitis lesions along the entire colon was performed using the scoring system: degree of crypt structural damage (0–3), degree of inflammatory cell infiltration (0–3), and degree of submucosal edema (0–3). For PAS staining, deparaffinized and rehydrated tissue sections were treated with 0.5% periodic acid (10450-60-9, Junsei Chemical Co., Tokyo, Japan) and stained with Schiff’s reagent (3952016, Sigma-Aldrich). Sections were dehydrated in ethyl alcohol and coverslipped.

mouse MLKL (mMLKL) = assay: MLKL oligomerization Western blot in J774A.1 cells; type: cell-based; conditions: J774A.1, TBZ, 20 μM, 8 h
Protocol: Fig. 2 Effect of redox-sensitive APO on MLKL oligomerization. A Chemical structure of APO. APO undergoes auto-oxidation to form the oxidized form (Ox-APO), while the addition of DTT preserves the reduced form (Re-APO). The red highlights indicate the sites where APO loses hydrogen and electrons during the oxidation process. B Real-time 1D ^1H NMR spectra showing the degree of oxidation of APO. APO was dissolved from its powdered form in DPBS and incubated at 25 °C for 36 h. Real-time 1D ^1H NMR spectra were measured at a 2 h intervals after filtration through a 0.2 μm syringe filter to remove precipitates. […] C MLKL oligomerization is inhibited by APO. THP-1 cells were treated with TBZ and Re-APO or Ox-APO for 8 h. Western blot analysis of WCLs was performed under non-reducing and reducing conditions using the indicated antibodies. Percentage changes of p-MLKL oligomer band relative to GAPDH were shown. The p value for MLKL oligomer band intensity was calculated based on the average intensity of the tetramer and octamer bands. Octa octamer, Tetra tetramer, Mono monomer. Mean ± SEM (n = 3). **p < 0.001, ns not significant, one-way ANOVA. D THP-1 cells were treated with TBZ and Ox-APO or Re-APO for 8 h and then stained with DAPI and MLKL for confocal microscopy. In the intensity graph, green indicates MLKL. The signal intensity of MLKL fluorescence from the plasma membrane to the cytosol was measured using FluoView FV1000 software. Mean ± SEM (n > 100). **p < 0.01, ***p < 0.001, one-way ANOVA. E J774A.1 mouse monocytic cells were treated with TBZ and 20 μM Re-APO or Ox-APO for 8 h. Western blot analysis of WCLs was performed under non-reducing and reducing conditions using the indicated antibodies.
The cells were harvested and lysed in 1× RIPA buffer (R4100-010, GenDEPOT, Katy, TX, USA) containing protease (P3100-001, GenDEPOT) and phosphatase (1862495, Thermo Fisher Scientific) inhibitors. WCLs were then centrifuged at 20,000×g for 30 min at 4 °C and subjected to non-reducing or reducing 8–12% SDS-PAGE gel electrophoresis. The membrane was blocked with 5% non-fat milk in TBS and probed with antibodies. Antibodies to hMLKL (14993S), mMLKL (97705S), phospho-hMLKL (Ser358) (91689S), phospho-mMLKL (Ser345) (37333S), phospho-hRIP1 (Ser166) (65746S), mRIP1 (3493S), phospho-mRIP1 (Ser321) (38662S), phospho-hRIP3 (Ser227) (93654), mRIP3 (95702S), p-mRIP3 (Thr231/Ser232) (91702S), and LDH (2012S) (Cell Signaling Technology, Danvers, MA, USA), and GAPDH (LF-PA0018, Abfrontier, S. Korea), hRIP1 (ab72139, Abcam, Cambridge, UK), hRIP3 (sc-135170, Santa Cruz Biotechnology, Dallas, TX, USA), HMGB1 (ab78923, Abcam), and LAMP1 (ab24170, Abcam) antibodies were used.

[2] = 15 mg/kg i.p. daily, 2.5% DSS 8 days

Row | Structure (SMILES) | average histologic score ([1]; 1.5 mg/kg i.p. daily, 2.5% DSS 8 days) | average histologic score [1, 2] | DAI score and colon length ([1]; i.p. daily, 2.5% DSS 8 days) | formation of mMLKL tetramers and octamers (mouse MLKL (mMLKL)) | phosphorylation of mRIP1, mRIP3 and mMLKL (mouse MLKL (mMLKL)) | alleviation of DSS-induced colitis symptoms relative to Ox-APO ([1]; at the same concentration) | colitis symptoms and pathological changes (H&E, PAS) ([1]; 0.15, 1.5 or 15 mg/kg i.p. daily, oxidative state not determined)
1 | CN1CCc2cccc3c4c(cc1c23)C=CC(=O)C4=O [Ox-APO] | 3.0 | 1.2 | more effective than Re-APO | strongly prevented | little effect | – | –
2 | CN1CCc2cccc3c2C1Cc1ccc(O)c(O)c1-3 (stereo not shown) [Re-APO] | – | 2.6 | – | strongly prevented | little effect | about ten times weaker than Ox-APO | –
3 | CN1CCc2cccc3c2[C@@H]1Cc1ccc(O)c(O)c1-3 [S62, (6aS)-6-methyl-5,6,6a,7-tetrahydro-4H-dibenzo[de,g]quinoline-10,11-diol] | – | – | – | – | – | – | significantly alleviated
